Source: PubChem BioAssay (NCI)
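48-hour exposure; five concentrations; linearly interpolated endpoints. GI50 = concentration required for 50% inhibition of growth. TGI: total growth inhibition.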

Key:
Assay in all cases: DTP human tumour cell line panel, 48 h
[1] = system: COLO 205 colon
[2] = system: KM12 colon
[3] = system: MDA-N
[4] = system: SF-268 CNS
[5] = system: SK-MEL-28 melanoma
[6] = system: SN12C renal
[7] = system: DLD-1 colon
[8] = system: DMS 114 small cell lung
[9] = system: M19-MEL melanoma
[10] = system: XF 498 CNS
[11] = system: 786-0 renal
[12] = system: HOP-92 NSCLC
[13] = system: T-47D breast

SMILES	TGI [1]	TGI [2]	TGI [3]	TGI [4]	TGI [5]	TGI [6]	TGI [7]	TGI [8]	TGI [9]	TGI [10]	TGI [11]	TGI [12]	TGI [13]	GI50 [1]	GI50 [12]	GI50 [2]	GI50 [4]	GI50 [5]	GI50 [6]	GI50 [13]
COc1ccc(NS(=O)c2ccc(-c3ccccc3)cc2)cc1 (centres undefined)	> 100 µM	> 100 µM	> 100 µM	> 100 µM	> 100 µM	> 100 µM														
CC1SC(c2ccccc2)N(Nc2c3ccccc3nc3ccccc23)C1=O (centres undefined)	> 100 µM	> 100 µM		> 100 µM	> 100 µM	> 100 µM	> 100 µM	> 100 µM	> 100 µM	> 100 µM										
COc1ccc(OC)c([N+](=O)[O-])c1-c1nc2sccn2c1/C=N/N=C(N)N	> 100 µM	81.5 µM	> 100 µM	> 100 µM	68.3 µM	> 100 µM					> 100 µM	> 100 µM	> 100 µM							
COc1cc2cc[n+](C)c(Cc3ccccc3)c2cc1OC	> 100 µM	> 100 µM		> 100 µM	> 100 µM	> 100 µM		> 100 µM	> 100 µM		> 100 µM	> 100 µM								
CN1CCN(c2ccc(-c3ccc4ncc(C#N)c(Nc5ccc(F)c(Cl)c5)c4c3)cc2)CC1	4.99 µM	18.4 µM		15.9 µM	3.66 µM	19.6 µM						28.4 µM	7.15 µM	1.92 µM	3.47 µM	4.47 µM	2.87 µM	1.79 µM	3.04 µM	1.93 µM
NCC[Se][Se]CCN	14.6 µM	20.6 µM	23.4 µM	32.5 µM	29.7 µM	21.5 µM					29.4 µM	35.8 µM	64.4 µM							
COc1ccc(-c2cc(-c3ccccc3)n(C3OCC(OC(C)=O)C(OC(C)=O)C3OC(C)=O)c(=S)c2C#N)cc1 (centres undefined)	> 100 µM	> 100 µM	> 100 µM	> 100 µM	> 100 µM	> 100 µM						53.6 µM	> 100 µM							
Cc1nc2ccccc2c(=O)n1-c1n[nH]c2ccccc12	> 100 µM	> 100 µM		> 100 µM	> 100 µM	> 100 µM					> 100 µM	> 100 µM	> 100 µM							
O=C(N/C(=C\c1ccccc1[N+](=O)[O-])c1nc2ccccc2[nH]1)c1ccccc1	> 100 µM	> 100 µM			> 100 µM	> 100 µM	> 100 µM		> 100 µM	> 100 µM		> 100 µM								
O=[N+]([O-])c1ccc(N=Nc2c(O)ccc3cc(S(=O)(=O)O)ccc23)cc1	> 100 µM	> 100 µM	> 100 µM	> 100 µM	> 100 µM	> 100 µM					> 100 µM	> 100 µM	> 100 µM							
